Measured values taken from US11872209B2, “Treatment for primary biliary cholangitis” (Zydus Lifesciences Limited, priority 2016, dated 2024).
“Also recorded” adds a separate entry of the source. Where a name gives a salt, the structure may show the parent alone.

System: carbon tetrachloride-induced liver fibrosis
Test: Carbon tetrachloride-induced liver fibrosis in male Sprague Dawley rats
Format: in vivo
Details: 0.4 and 4 mg/kg/day orally for 4 weeks with continued CCl4 injections
Protocol: To assess the effect of Compound of formula (Ia) on the progression of established hepatic fibrosis, fibrosis was induced in rats by twice weekly carbon tetrachloride (CCl4) injections for 2 weeks via an intraperitoneal route. Compound (Ia) (0.4 and 4 mg/kg/day), pioglitazone (10 mg/kg/day), fenofibrate (100 mg/kg/day) or vehicle (Tween 80 and 0.5% sodium salt of carboxymethylcellulose at ratio of 0.5:99.5) was then orally administered for 4 weeks to animals concomitantly with continued CCl4 injections. After 4 weeks of treatment, blood samples were collected 1 h post-dose, for estimation of non-fasted serum ALT and other serum parameters. All the animals were sacrificed; liver was quickly removed, weighed and fixed in 10% formalin for histological analysis or snap frozen in liquid nitrogen for other assays. Light microscopic examination of liver tissue was performed using standard hematoxylin and eosin (H&E) staining. Hepatic fibrosis was accessed by Masson's trichrome staining method.

## CCO[C@@H](Cc1ccc(OCCn2c(C)ccc2-c2ccc(SC)cc2)cc1)C(=O)O [Compound (Ia), saroglitazar magnesium salt]
After 2 weeks of CCl4, listed as Compound of formula (Ia)
  Effect on CCl4-induced liver fibrosis: protected the animals from further deterioration and exhibited a dose-dependent reversal of CCl4-induced liver fibrosis; also recorded: protected the animals from further deterioration and showed dose dependent reversal of CCl4-induced liver fibrosis
FIG. 1
  Microscopic quantification of fibrosis (H&E and Masson's trichrome staining of liver tissues): stopped the progression of established liver fibrosis and accelerated liver recovery
